From patent publication US9556203B2, “Conformationally restricted P13K and mTOR inhibitors” (UNIVERSITAET BASEL, priority 2013, dated 2017)

How the values were obtained:
[1] = tested on: pPKB S473; assay: In-cell Western blot, pPKB S473; type: cell-based; conditions: Homo sapiens; A2058 cells, treated 1 h, normalized to α-Tubulin
Description: (§1) A2058 cells were plated at 20,000 cells/well in a 96-well plate (Perkin Elmer, Cat. No. 6005558) and 24 h later treated with different compounds for 1 h. […] Cells were fixed with 4% paraformaldehyde for 30 min at RT, washed 2 times with 1% BSA in PBS, permeabilized with 0.1% Triton X-100 in PBS/1% BSA for 30 min at rt and blocked with 5% goat serum in PBS/1% BSA/0.1% Triton X-100 for 30 min at rt. Cells were stained with primary antibody either with rabbit anti-pPKB S473 (1:500; Cell Signalling Technology, Cat. No. 4058) combined with mouse anti-α-Tubulin (1:2000; used for normalization; Sigma, Cat. No. T9026) or with rabbit anti-pS6 S235/S236 (1:500; Cell Signalling Technology, Cat. No. 4856) combined with mouse anti-α-Tubulin (1:2000; used for normalization) over night at 4° C. After 3 times 5 min wash with PBS/1% BSA/0.1% Triton cells were treated with the secondary antibodies goat-anti-mouse IRDye680 (LICOR, Cat. No. 926-68070) and goat-anti-rabbit IRDye800 (LICOR, 926-32211) (each diluted 1:500 in PBS/1% BSA/0.1% Triton) for 1 h while shaking in the dark. Cells were washed 3 times 5 min with PBS/1% BSA/0.1% Triton and plate scanned with the Odyssey Infrared Scanning system using both 700 and 800 nm channels. […] To correct for background staining in the data analysis wells were treated only with secondary antibodies.
(§2) For data analysis the mean background signal from channel 700 nm and 800 nm were subtracted from each signal in channel 700 nm and 800 nm, respectively. The signals in each channel were normalized to the 0% inhibition and then signal ratio 800 nm over 700 nm was performed to obtain the values for either pPBK S473 or pS6 S235/S236 normalized to α-Tubulin.
(§3) IC50 values of each compound were determined by plotting the normalized pPBK S473 and pS6 S235/S236 signals, respectively, versus the compound concentrations (in logarithmic scale) and then by fitting a sigmoidal dose-response curve with variable slope to the data using GraphPad™ Prism.

[2] = tested on: pS6 S235/236; assay: In-cell Western blot, pS6 S235/236; type: cell-based; conditions: Homo sapiens; A2058 cells, treated 1 h, normalized to α-Tubulin
Description: as §1, §2, §3

[3] = biological target: T1, PI3K alpha (p110α) (Homo sapiens, UniProt P42336); assay: In vitro PI3K alpha binding assay (time-resolved FRET, Tracer 314); conditions: N-terminally His-tagged PI3K alpha, 20 nM Tracer 314, 1 h at rt
T1 construct: purchased Life Technologies PV4789
T1 sequence (P42336 whole entry): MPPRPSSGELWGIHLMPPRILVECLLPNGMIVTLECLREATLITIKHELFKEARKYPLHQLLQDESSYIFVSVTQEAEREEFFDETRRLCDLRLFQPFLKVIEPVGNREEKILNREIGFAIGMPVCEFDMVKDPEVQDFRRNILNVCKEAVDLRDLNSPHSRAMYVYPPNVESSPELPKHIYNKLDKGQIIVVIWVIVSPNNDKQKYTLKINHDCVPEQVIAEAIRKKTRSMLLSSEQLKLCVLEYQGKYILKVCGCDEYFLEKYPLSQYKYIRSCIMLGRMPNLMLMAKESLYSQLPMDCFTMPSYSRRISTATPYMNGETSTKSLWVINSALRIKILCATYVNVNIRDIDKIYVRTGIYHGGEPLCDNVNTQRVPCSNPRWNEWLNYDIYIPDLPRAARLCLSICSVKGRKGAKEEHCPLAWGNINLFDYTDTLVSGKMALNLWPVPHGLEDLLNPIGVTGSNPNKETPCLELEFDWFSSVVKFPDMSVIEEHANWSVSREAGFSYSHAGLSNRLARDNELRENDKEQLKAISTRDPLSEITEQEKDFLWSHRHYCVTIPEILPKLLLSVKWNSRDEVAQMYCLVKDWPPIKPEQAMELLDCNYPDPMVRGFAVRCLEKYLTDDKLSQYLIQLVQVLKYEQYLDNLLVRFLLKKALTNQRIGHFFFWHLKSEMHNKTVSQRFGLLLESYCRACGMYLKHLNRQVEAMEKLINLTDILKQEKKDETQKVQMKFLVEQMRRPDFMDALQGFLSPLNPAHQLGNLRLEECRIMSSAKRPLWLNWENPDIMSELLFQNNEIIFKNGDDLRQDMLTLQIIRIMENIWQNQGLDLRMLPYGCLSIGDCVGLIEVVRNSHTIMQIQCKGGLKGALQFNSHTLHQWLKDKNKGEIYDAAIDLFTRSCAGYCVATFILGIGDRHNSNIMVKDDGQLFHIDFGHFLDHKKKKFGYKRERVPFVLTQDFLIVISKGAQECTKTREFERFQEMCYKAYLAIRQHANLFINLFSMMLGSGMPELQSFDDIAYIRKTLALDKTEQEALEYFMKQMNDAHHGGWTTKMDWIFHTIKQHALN
T1 sequence (P27986 whole entry partner): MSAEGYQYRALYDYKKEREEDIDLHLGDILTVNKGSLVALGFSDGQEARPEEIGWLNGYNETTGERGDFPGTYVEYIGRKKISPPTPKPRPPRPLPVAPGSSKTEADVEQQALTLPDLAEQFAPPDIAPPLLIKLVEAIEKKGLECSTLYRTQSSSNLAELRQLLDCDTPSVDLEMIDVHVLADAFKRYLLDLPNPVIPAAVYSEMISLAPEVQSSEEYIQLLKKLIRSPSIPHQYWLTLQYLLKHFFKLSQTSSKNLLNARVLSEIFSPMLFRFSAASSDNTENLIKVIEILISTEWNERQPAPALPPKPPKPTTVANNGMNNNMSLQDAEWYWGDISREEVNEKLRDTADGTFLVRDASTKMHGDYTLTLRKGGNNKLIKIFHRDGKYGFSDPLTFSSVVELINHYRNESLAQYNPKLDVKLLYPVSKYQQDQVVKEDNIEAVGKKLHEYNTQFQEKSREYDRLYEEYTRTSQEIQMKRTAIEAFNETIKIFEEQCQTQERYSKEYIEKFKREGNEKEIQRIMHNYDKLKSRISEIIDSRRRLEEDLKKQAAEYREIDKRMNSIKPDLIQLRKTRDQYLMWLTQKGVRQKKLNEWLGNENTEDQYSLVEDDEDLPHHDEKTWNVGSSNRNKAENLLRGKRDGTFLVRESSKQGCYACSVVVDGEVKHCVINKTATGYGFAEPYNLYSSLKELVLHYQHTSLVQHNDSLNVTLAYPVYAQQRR
Description: N-terminally His-tagged PI3K alpha (Cat. No. PV4789; 0.49 mg/ml), Alexa Fluor® 647 labeled kinase Tracer 314 (Cat. No. PV6087), Biotin anti-His Tag antibody (Cat. No PV6089) and LanthaScreen® Eu-Streptavidin (Cat. No. PV5899) were purchased from Life Technologies. The 1× Kinase Buffer A consists of 50 mM HEPES pH 7.5, 10 mM MgCl2, 1 mM EGTA, and 0.01% (v/v) Brij-35 (Sigma Cat. No. B4184-100ML).
A 4-fold serial dilution of each compound to be tested was prepared in DMSO (master dilution) in a 96-well polystyrene plate (Falcon Cat. No. 353072, flat bottom) with the highest concentration at 1000 μM and the lowest at 0.004 μM. The master dilution series were diluted further 33.3-fold into Kinase Buffer A by transferring 5 μl of each concentration of diluted compound to 162 μl Kinase Buffer A in a new 96-well plate resulting to a 3-fold serially compound dilution. Based on a Tracer 314 titration experiment a working concentration of 20 nM was chosen. Therefore a 60 nM Tracer 314 solution in Kinase Buffer A was prepared resulting in a 3-fold concentrated solution. A 3-fold concentrated kinase/antibody solution at 15 nM kinase, 6 nM antibody and 6 nM Eu-Streptavidin was prepared in Kinase Buffer A. Five μl of each 3× serially diluted compound were dispensed in a 384-well plate in duplicate. Then to each well 5 μl of 3× kinase/antibody mixture was added followed by the addition of 5 μl 3× Tracer 314 solution. After 1 h incubation at rt, time-resolved FRET was measured with a Synergy 4 multi-mode microplate reader (Biotek Instruments) using the following settings: 100 μs delay before data collection, 200 μs time for data collection, 10 measurements per data point. Emission filter: 665 nm/8 nm with sensitivity set to 163 and 620 nm/10 nm with sensitivity set to 135; Excitation filter: 340 nm/30 nm; Dichroic mirror 400 nm.
For data analysis, emission ratio was calculated by dividing the signal emitted at 665 nm from the acceptor (Alexa Fluor® 647 labeled Tracer 314) by the signal emitted at 620 nm from the donor (Eu-labeled antibody). IC50 values of each compound were determined by plotting the emission ratio versus the compound concentrations (in logarithmic scale) and then by fitting a sigmoidal dose-response curve with variable slope to the data using GraphPad™ Prism.

Row | IC50 [3] | Structure (SMILES) | IC50 [1] | IC50 [2]
1 | 390 nM | Nc1cc(C(F)(F)F)c(-c2nc(N3CCOCC3)c3c(n2)N2CCOC[C@H]2C3)cn1 [Compound 6, (R)-5-(4-morpholino-5a,6,8,9-tetrahydro-5H-pyrimido[5′,4′:4,5]pyrrolo[2,1-c][1,4]oxazin-2-yl)-4-(trifluoromethyl)pyridin-2-amine] | 425 nM | 696 nM
2 | 411 nM | Nc1ncc(-c2nc(N3CCOCC3)c3c(n2)N2CCOC[C@H]2C3)cn1 [Compound 9, (R)-5-(4-morpholino-5a,6,8,9-tetrahydro-5H-pyrimido[5′,4′:4,5]pyrrolo[2,1-c][1,4]oxazin-2-yl)pyrimidin-2-amine] | 145 nM | 65 nM
3 | 98.1 nM | Nc1cc(C(F)(F)F)c(-c2nc(N3CCOCC3)c3c(n2)N2CCOC[C@@H]2C3)cn1 [Compound 22, (S)-5-(4-morpholino-5a,6,8,9-tetrahydro-5H-pyrimido[5′,4′:4,5]pyrrolo[2,1-c][1,4]oxazin-2-yl)-4-(trifluoromethyl)pyridin-2-amine] | 428 nM | 1090 nM
4 | 76 nM | Nc1ncc(-c2nc(N3CCOCC3)c3c(n2)N2CCOC[C@@H]2C3)cn1 [Compound 25, (S)-5-(4-morpholino-5a,6,8,9-tetrahydro-5H-pyrimido[5′,4′:4,5]pyrrolo[2,1-c][1,4]oxazin-2-yl)pyrimidin-2-amine] | 154 nM | 98 nM
5 | 2620 nM | Nc1cc(C(F)(F)F)c(-c2nc(N3CCOCC3)nc3c2C[C@@H]2COCCN32)cn1 [Compound 38, (R)-5-(2-morpholino-5a,6,8,9-tetrahydro-5H-pyrimido[5′,4′:4,5]pyrrolo[2,1-c][1,4]oxazin-4-yl)-4-(trifluoromethyl)pyridin-2-amine] | 5910 nM | 9080 nM
6 | 231 nM | Nc1ncc(-c2nc(N3CCOCC3)nc3c2C[C@@H]2COCCN32)cn1 [Compound 41, (R)-5-(2-morpholino-5a,6,8,9-tetrahydro-5H-pyrimido[5′,4′:4,5]pyrrolo[2,1-c][1,4]oxazin-4-yl)pyrimidin-2-amine] | 575 nM | 574 nM
7 | 383 nM | Nc1cc(C(F)(F)F)c(-c2nc(N3CCOCC3)nc3c2C[C@H]2COCCN32)cn1 [Compound 54, (S)-5-(2-morpholino-5a,6,8,9-tetrahydro-5H-pyrimido[5′,4′:4,5]pyrrolo[2,1-c][1,4]oxazin-4-yl)-4-(trifluoromethyl)pyridin-2-amine] | 833 nM | 2110 nM
8 | 1640 nM | Nc1ncc(-c2nc(N3CCOCC3)nc3c2C[C@H]2COCCN32)cn1 [Compound 57, (S)-5-(2-morpholino-5a,6,8,9-tetrahydro-5H-pyrimido[5′,4′:4,5]pyrrolo[2,1-c][1,4]oxazin-4-yl)pyrimidin-2-amine] | 1260 nM | 594 nM
